Source: patent publication US20260234146A1, “Use of Hypoxia-Inducible Factor-Prolyl Hydroxylase Inhibitor (HIF-PHI) in Rare Anemia” (Kind Pharmaceutical, priority 2023, published 2026)

Assays:
Townes SCD model mouse = experiment: Effect on SCD anemia mice (RBC, Hb, HCT); type: in vivo
Description: Throughout the experimental stage, animals were housed in cages in an animal room with 24-hour continuous central air conditioning, temperature set at 20-26° C., relative air humidity set at 40-70%, and a 12-hour light/dark cycle. All animals had free access to food and sterilized drinking water. The animal strain was B6·Cg-Hbb^tm2(HBG1,HBB)Tow/Hbat^ml(HBA)Tow/ShmtJ mice, a Townes SCD model mouse where mouse endogenous hemoglobin is replaced by knocked-in human hemoglobin. Two weeks after birth, mice were ear-punched for identification, and the ear tissue was collected for PCR analysis to determine its genotype. Mice confirmed as B6·Cg-Hbb^tm2(HBG1,HBB)Tow/Hbat^ml(HBA)Tow/ShmtJ were grouped. […] Blood sampling was performed every other week. Mice showing symptoms of anemia were selected for dosing. Animals were randomly divided into groups, 6 animals per group: Vehicle control group (0.1 M meglumine aqueous solution; oral gavage; volume: 6.67 mL/kg), Comp-1 group (30 mpk; oral gavage; volume: 6.67 mL/kg), and EPO group (50 U/30 g body weight; SC injection; MyBioSource, cat. #: MBS650094, erythropoietin alpha). Dosing was administered three times a week (TIW) for 4 consecutive weeks. On days 14 and 28 of dosing, 70 μL of blood was collected from orbit. Collected blood samples were placed in heparin-anticoagulant tubes. 15 μL of the blood sample from the anticoagulant tube was aspirated and added to an Element HT5 Veterinary Hematology Analyzer. RBC, Hb, and HCT in the blood were measured according to the instrument's operating instructions. Data analysis was performed using GraphPad Prism 9.0. […]

MDS model mice = experiment: Effect on MDS model mice (RBC, Hb, HCT); type: in vivo, C57 mice; settings: 50 U/30 g
[1] = 30 mpk oral gavage TIW group, baseline, average of six mice
[2] = 30 mpk oral gavage TIW, end of the four-week experiment, average of five mice
[3] = 50 U/30 g SC TIW, After 2 weeks of dosing Week 2
[4] = 50 U/30 g SC TIW, After 4 weeks of dosing Week 4
[5] = 50 U/30 g group, Before dosing Week 0

| Compound | HCT (Townes SCD model mouse; [1]) | Hb (Townes SCD model mouse; [1]) | RBC (Townes SCD model mouse; [1]) | HCT (Townes SCD model mouse; [2]) | Hb (Townes SCD model mouse; [2]) | RBC (Townes SCD model mouse; [2]) | Mortality (Townes SCD model mouse; 30 mpk, oral gavage, TIW, after two weeks of dosing) | Improvement of RBC, Hb, or HCT values (MDS model mice) | Arithmetic mean of HCT hematocrit (Townes SCD model mouse; [3]) | Arithmetic mean of HGB hemoglobin content (Townes SCD model mouse; [3]) | Arithmetic mean of RBC red blood cell count (Townes SCD model mouse; [3]) | Arithmetic mean of HCT hematocrit (Townes SCD model mouse; [4]) | Arithmetic mean of HGB hemoglobin content (Townes SCD model mouse; [4]) | Arithmetic mean of RBC red blood cell count (Townes SCD model mouse; [4]) | Arithmetic mean of HCT hematocrit (Townes SCD model mouse; [5]) | Arithmetic mean of HGB hemoglobin content (Townes SCD model mouse; [5]) | Arithmetic mean of RBC red blood cell count (Townes SCD model mouse; [5]) | Therapeutic effect in the SCD mouse model (Townes SCD model mouse; 50 U/30 g, SC injection, TIW, 4 weeks) |
| --- | --- | --- | --- | --- | --- | --- | --- | --- | --- | --- | --- | --- | --- | --- | --- | --- | --- | --- |
| O=C(O)CNC(=O)C1C(=O)N(C2CCCCC2)C(=O)N(C2CCCCC2)C1=O [Daprodustat, reference compound] | 31.8% | 9.1 g/dL | 6.14 M/μL | 35.9% | 10.9 g/dL | 7.54 M/μL | One mouse in the Daprodustat group including six mice in total died | – | – | – | – | – | – | – | – | – | – | – |
| EPO: EPO positive control; MyBioSource, cat. #: MBS650094, erythropoietin alpha | – | – | – | – | – | – | – | Neither Roxadustat nor EPO improved RBC, Hb, or HCT values | 25.02% | 7.52 g/dL | 5.80 M/μL | 23.25% | 6.87 g/dL | 5.43 M/μL | 27.00% | 8.37 g/dL | 6.25 M/μL | no therapeutic effect in the SCD mouse model |
